Reference: article PMC6152057, “Multifunctional Cinnamic Acid Derivatives” (Molecules : A Journal of Synthetic Chemistry and Natural …, 2017)
Where “and” joins values, the source holds several entries; their conditions need not be identical. Equal entries are not always repeated. Entries after “also recorded” stand apart in the source; their conditions may differ.

What was measured:
[1] = Inhibition of linoleic acid lipid peroxidation (AAPH); conditions: 100 μM; AAPH-induced oxidation of sodium linoleate, pH 7.4, 37 °C; na = no activity
Description: Production of conjugated diene hydro peroxide by oxidation of sodium linoleate in an aqueous solution was monitored at 234 nm. AAPH was used as a free radical initiator. Ten microliters of the 16 mM sodium linoleate solution was added to the UV cuvette containing 930 μL of 0.05 M phosphate buffer, pH 7.4 prethermostated at 37 °C. The oxidation reaction was initiated at 37 °C under air by the addition of 50 μL of 40 mM AAPH solution. 10 μL of the appropriate solutions of the tested compounds were added in the mixture. Lipid oxidation was measured in the presence of the same level of DMSO. The rate of oxidation at 37 °C was monitored by recording the increase in absorption at 234 nm caused by conjugated diene hydro peroxides [24].

[2] = Lipophilicity as RM values by RP-TLC; type: physicochemical; parameters: key: RM = log[(1/Rf) − 1]; conditions: MeOH:H2O (70/30), average of at least 5 measurements
Description: Reversed phase TLC (RP-TLC) was performed on silica gel plates impregnated with 5% (v/v) liquid paraffin in light petroleum ether. The mobile phase was a methanol/water mixture (70/30, v/v). The plates were developed in closed chromatography tanks saturated with the mobile phase at 24 °C. Spots were detected under UV light. RM values were determined from the corresponding Rf values (from five individual measurements) using the equation RM = log[(1/Rf) − 1] (Table 1).

[3] = target: T1, soybean lipoxygenase (Glycine max, UniProt P08170); assay: Soybean lipoxygenase inhibition in vitro (UV-based enzyme assay); type: biochemical; conditions: for IC50: sodium linoleate substrate, tris buffer pH 9, read-out: IC50 μΜ, inhibition of soybean lipoxygenase
T1 construct: purchased Sigma Chemical, Co. (St. Louis, MO, USA)
T1 sequence (P08170 1-839): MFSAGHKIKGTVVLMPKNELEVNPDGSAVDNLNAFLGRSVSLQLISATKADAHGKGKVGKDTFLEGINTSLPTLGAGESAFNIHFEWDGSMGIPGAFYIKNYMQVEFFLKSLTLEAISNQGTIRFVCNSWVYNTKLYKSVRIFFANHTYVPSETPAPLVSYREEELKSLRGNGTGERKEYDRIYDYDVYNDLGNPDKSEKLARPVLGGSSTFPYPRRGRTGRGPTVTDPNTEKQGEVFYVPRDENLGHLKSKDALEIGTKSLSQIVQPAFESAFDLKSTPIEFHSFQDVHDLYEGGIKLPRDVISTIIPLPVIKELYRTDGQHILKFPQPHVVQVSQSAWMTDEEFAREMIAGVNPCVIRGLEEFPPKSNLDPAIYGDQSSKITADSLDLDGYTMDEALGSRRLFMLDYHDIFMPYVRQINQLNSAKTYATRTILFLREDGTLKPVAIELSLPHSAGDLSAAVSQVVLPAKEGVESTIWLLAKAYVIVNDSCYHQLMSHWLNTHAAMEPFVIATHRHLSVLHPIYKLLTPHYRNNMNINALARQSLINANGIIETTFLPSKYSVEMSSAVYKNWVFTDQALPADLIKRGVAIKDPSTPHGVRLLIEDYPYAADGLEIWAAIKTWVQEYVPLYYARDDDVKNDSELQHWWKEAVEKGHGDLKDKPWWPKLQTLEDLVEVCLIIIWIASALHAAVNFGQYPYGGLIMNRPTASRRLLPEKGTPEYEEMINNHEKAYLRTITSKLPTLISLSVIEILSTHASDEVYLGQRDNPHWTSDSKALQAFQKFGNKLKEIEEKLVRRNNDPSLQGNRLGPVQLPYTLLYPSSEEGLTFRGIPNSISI
Description: The tested compounds were dissolved in DMSO (10 μL) and incubated at room temperature with sodium linoleate (100 mM) and 0.2 mL of enzyme solution (1/9 × 10^−4 w/v in saline) in buffer pH 9 (tris) at room temperature (final volume 1 mL). […] Several concentrations were used for the determination of IC50 values.

[4] = target: T2, trypsin (Bos taurus, UniProt P00760); assay: Inhibition of trypsin induced proteolysis in vitro (modified Kunitz method); type: biochemical, bovine; conditions: for IC50: bovine albumin substrate, pH 7.6, 37 °C, read-out: IC50 μΜ, inhibition of trypsin induced proteolysis
T2 construct: purchased Sigma Chemical, Co. (St. Louis, MO, USA); host or cells: bovine pancreas
T2 sequence (P00760 24-246): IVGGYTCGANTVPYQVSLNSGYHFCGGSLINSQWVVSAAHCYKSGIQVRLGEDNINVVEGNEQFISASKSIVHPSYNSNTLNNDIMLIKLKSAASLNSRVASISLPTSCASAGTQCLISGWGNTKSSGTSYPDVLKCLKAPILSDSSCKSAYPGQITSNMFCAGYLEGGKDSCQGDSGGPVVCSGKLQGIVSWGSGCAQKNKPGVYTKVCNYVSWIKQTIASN
Description: All chemicals, solvents, chemical and biochemical reagents were of analytical grade and purchased from commercial sources (Merck, Merck KGaA, Darmstadt, Germany, Fluka Sigma-Aldrich Laborchemikalien GmbH, Hannover, Germany, Alfa Aesar, Karlsruhe, Germany and Sigma, St. Louis, MO, USA). Soybean lipoxygenase, pancreatic bovine trypsin, sodium linoleate, 2,2-azobis (2-amidinopropane) dihydrochloride (AAPH) were obtained from Sigma Chemical, Co. (St. Louis, MO, USA).
The test was carried out according to a modified Kunitz method. Bovine albumin was used as substrate for trypsin [24]. The reaction mixture consisted of 200 μL of 0.075 mg/mL trypsin and 780 μL of phosphate buffer pH 7.6 (including the tested compounds (20 μL in DMSO, final concentration 100 μM) preincubated at 37 °C for 20 min and then 1 mL of albumin (stock solution 6 g/100 mL in phosphate buffer 0.1 M, pH 7.6) was added and incubated at 37 °C for 30 min. After the incubation 1 mL of 5% trichloroacetic acid was added to the incubated solution to stop the enzyme’s reaction and allowed to set at room temperature for 1 h. Then the solution was filtered and the absorption of the filtered solution was measured at 280 nm.

[5] = system: L929 mouse fibroblasts cells; assay: Cytotoxicity, propidium iodide fluorescence method; type: cell-based; conditions: 24 h incubation, 1–100 μM
Description: The cytotoxicity of the synthesized derivatives was determined using the propidium iodide (PI) fluorescence method in the presence of different concentrations (1–100 μM) of these compounds. L929 mouse fibroblasts cells were used in this work since they have been previously used in the study of the pharmacological effects of antioxidant and anti-inflammatory agents. The cytotoxicity results of the new compounds against normal cells (such as the L929 fibroblasts) would give useful information as only non-cytotoxic compounds should be further evaluated as potential antioxidant drugs. The results are presented in Figure 1 in the form of the % cell survival values as propidium iodide % (PI)—values PI% for the examined compounds.
L929 mouse fibroblasts cells were cultured in EMEM supplemented with 10% horse serum, 2 mM L-glutamine, 1 mM sodium pyruvate, 0.1 mM nonessential amino acids, 1.5 g/L sodium bicarbonate and 100 μg/mL penicillin–streptomycin at 37 °C in a humidified atmosphere with 5% CO2. L929 cells were plated into 24-well plates at a density […] and allowed to attach and grow for 24 h. […] After 24 h incubation, the supernatant was removed and the cells were washed with PBS. […] The PI fluorescence (cell death) was determined with flow cytometry, FACS Calibur, Coulter Epics XL-MCL (Beckman, Inc., Mount Holly, NJ, USA). […]

RM (±SD) [2] | IC50 [3] | Anti-proteolytic activity, trypsin inhibition (in words) [4] | melting point | IC50 [4] | Soybean LOX inhibition (in words) [3] | inhibition at 100 µM ([3]; 100 μM, na = no activity under the reported experimental conditions, read-out: LOX Inh. % @ 100 μΜ) | inhibition at 100 µM ([4]; 100 μM, na = no activity under the reported experimental conditions, read-out: Trypsin Inh. % @100 μM) | Compound | ILP% @100 μΜ (% inhibition of lipid peroxidation) [1] | Cytotoxicity on L929 cells as PI% values (in words) [5]
−0.720 and −0.720 ± 0.012 | 66 µM |  | 102 to 105 °C | 0.315 µM |  |  |  | CC(C)N(CC(O)COc1ccc(CC(N)=O)cc1)C(=O)/C=C/c1ccccc1 (stereo not shown) [Compound 1a] | 97% | 
0.0889 ± 0.002 | 27.5 µM |  | 210 to 212 °C |  | low or no activity |  |  | O=C(/C=C/c1ccccc1)Oc1cccc2ccccc12 [Compound 1d, (E)-naphthalen-1-yl cinnamate] | inactive | 
0.1402 ± 0.0227 |  |  |  | 100 µM | low or no activity | 20% |  | O=C(/C=C/c1ccccc1)OCCN(Cc1ccccc1)C(=O)/C=C/c1ccccc1 [Compound 1f, 2-(N-benzylcinnamamido) ethyl cinnamate] | inactive | 
0.907 and 0.907 ± 0.008 | 6 µM |  | 118 to 120 °C | 0.425 µM |  |  |  | CC(C)N(CC(O)COc1cccc2ccccc12)C(=O)/C=C/c1cccc(Oc2ccccc2)c1 (stereo not shown) [Compound 2b, (E)N-(2-hydroxy-3-(naphthalen-1-yloxy)propyl)-N-isopropyl-3-(3phenoxyphenyl) acrylamide] | 84% | 
−0.841 and −0.841 ± 0.0014 | 10 µM |  | 176 to 178 °C | 1 µM |  |  |  | COc1ccc(/C=C/C(=O)N(CC(O)COc2ccc(CC(N)=O)cc2)C(C)C)cc1OC (stereo not shown) [Compound 3a] | 86% | 
0.0819 and 0.0819 ± 0.01 | 10 µM |  | 172 to 174 °C | 0.516 µM |  |  |  | COc1ccc(/C=C/C(=O)N(CC(O)COc2cccc3ccccc23)C(C)C)cc1OC (stereo not shown) [Compound 3b, (E)-3-(3,4-dimethoxyphenyl)-N-(2-hydroxy-3-(naphthalen-1-yloxy)propyl)-N-isopropylacrylamide] | 71% | 
 | 6 µM |  |  | 2.75 µM |  |  |  | CC(C)N(C[C@H](O)COc1cccc2ccccc12)C(=O)/C=C/c1cccc(Oc2ccccc2)c1 [Compound S-2b, (S)-N-(2-hydroxy-3-(naphth-1-yloxy)propyl)-N-isopropyl-3-(3-phenoxyphenyl) acrylamide] | 86% | 
−0.374 ± 0.0176 | 100 µM |  |  |  | low or no activity |  |  | (E)-2-(benzylamino) ethyl 3-phenylacrylate [Compound 1e] |  | 

More lines, now with the values behind:

Compound | RM (±SD) [2] | IC50 [3] | Anti-proteolytic activity, trypsin inhibition (in words) [4] | melting point | IC50 [4] | Soybean LOX inhibition (in words) [3] | inhibition at 100 µM ([3]; 100 μM, na = no activity under the reported experimental conditions, read-out: LOX Inh. % @ 100 μΜ) | inhibition at 100 µM ([4]; 100 μM, na = no activity under the reported experimental conditions, read-out: Trypsin Inh. % @100 μM) | ILP% @100 μΜ (% inhibition of lipid peroxidation) [1] | Cytotoxicity on L929 cells as PI% values (in words) [5]
3,4-dimethoxycaffeic acid [Compound 3] | −0.869 ± 0.0614 |  |  |  |  |  |  |  | 86% | 
CC(C)NCC(O)COc1ccc(CC(N)=O)cc1 (stereo not shown) [Atenolol, atenolol, reference compound] |  | 22.5 µM | did not present any activity |  |  |  |  |  |  | 
O=C(O)/C=C/c1ccccc1 [Compound 1, cinnamic acid] | −0.485 and −0.485 ± 0.044 |  |  |  |  |  |  |  | 78% | 
CC(C)N(CC(O)COc1cccc2ccccc12)C(=O)/C=C/c1ccccc1 (stereo not shown) [Compound 1b, (E)-N-(2-hydroxy-3-(naphthalen-1-yloxy)propyl)-N-isopropylcinnamamide] | 0.411 and 0.411 ± 0.061 | 50 µM |  |  | 10 µM |  |  |  | 69% | remarkable cytotoxicity
O=C(/C=C/c1ccccc1)OC12CC3CC(CC(C3)C1)C2 [Compound 1c, (E)-adamantan-1-yl cinnamate] | 0.911 and 0.911 ± 0.0112 |  |  | 183 to 185 °C | 49 µM | low or no activity; also recorded: inactive |  |  |  | 
O=C(O)/C=C/c1cccc(Oc2ccccc2)c1 [Compound 2, (E)-3-(3-phenoxyphenyl)acrylic acid] | −0.41 ± 0.016 | 66 µM |  |  |  |  |  |  | 84% | 
CC(C)N(CC(O)COc1ccc(CC(N)=O)cc1)C(=O)/C=C/c1cccc(Oc2ccccc2)c1 (stereo not shown) [Compound 2a] | 0.128 ± 0.0204 | 35 µM |  |  | 0.325 µM |  |  |  | 86% | remarkable cytotoxicity
O=C(O)c1ccccc1O [Salicylic acid, reference compound] |  |  |  |  |  |  |  | 53.6% |  | 
Cc1c(C)c2c(c(C)c1O)CCC(C)(C(=O)O)O2 (stereo not shown) [Trolox, reference compound] |  |  |  |  |  |  |  |  | 93% | 
